Converted amounts (≈) assume the structure as drawn.

By IC50 is commonly meant the concentration at which inhibition is half-maximal.

The test system of this assay is CCRF-CEM. Nature of the assay: Compound was tested for cytotoxic activity in CCRF-CEM Human Leukemia cells by in vitro cytotoxicity assay. The format is functional, cell-based.
Regarding `Nc1nc(O)c2c(n1)NCC(CCc1ccc(C(=O)NC(CCC(=O)O)C(=O)O)cc1)C2` (stereo not given), the IC50 is 7 ng/mL (≈ 0.0158 µM).
Turning to `Nc1nc(O)c2c(n1)NC(=O)C(CCc1ccc(C(=O)NC(CCC(=O)O)C(=O)O)cc1)C2` (stereo not given), the 50% inhibitory concentration (IC50) was greater than 20000 ng/mL.
In the case of `CN(CC1Cc2c(O)nc(N)nc2NC1=O)c1ccc(C(=O)NC(CCC(=O)O)C(=O)O)cc1` (stereo not given), the concentration for half-maximal inhibition (IC50) is greater than 20000 ng/mL.
The compound `CN(Cc1cnc2nc(N)nc(N)c2n1)c1ccc(C(=O)N[C@@H](CCC(=O)O)C(=O)O)cc1` [METHOTREXATE] had an IC50 of 4 ng/mL (≈ 0.0088 µM).
Compound `Nc1nc(O)c2c(n1)NC(=O)C(CNc1ccc(C(=O)NC(CCC(=O)O)C(=O)O)cc1)C2` (stereo not given) returned a concentration for half-maximal inhibition (IC50) greater than 20000 ng/mL.

The values are drawn from ChEMBL document CHEMBL1134530, “Synthesis and biological activity of 7-oxo substituted analogues of 5-deaza-5,6,7,8-tetrahydrofolic acid (5-DATHF) and 5,10-dideaza-5,6,7,8-tetrahydrofolic acid (DDATHF)” (J Med Chem, 2001).
